Test results as given in US9340559B2, “Proteasome inhibitor delanzomib for use in the treatment of lupus” (Cephalon, Inc., priority 2011, dated 2016).

Experiments:
Assay type in all cases: in vivo, mouse
[1] = test system: MRL/lpr mice; assay: Urinalysis: total urine protein (proteinuria), MRL/lpr mice
Protocol: Urine samples are acid precipitated for total protein recovery and analysis. Samples for which enough urine remained are used for Uristix® leukouria analysis. Briefly, a standard protein solution is prepared from normal mouse sera and is used as a standard for mouse urinary protein assay by turbidity. Standard preparation is as follows: 0, 5, 10, 15, 20, 30, 40, and 50 μL of a 4 mg/mL mouse sera standard protein solution as provided in the kit are added in duplicate into two columns. PBS is added to individual wells to adjust the final volume to 50 μL. For urine sample preparation, urine samples are centrifuged at 9880×g for 3 minutes using a tabletop micro-centrifuge. Urine supernatant (1-50 μL) is added in duplicate. PBS is added to adjust the volume to 50 μL total. For the turbidity assay: 25 μL of 0.1 N HCl is added into blank columns and 250 μL of 3% sulfosalicyclic acid into the test columns. The microplate is incubated for 10 minutes at RT and plates are read using an ELISA reader with single beam at 450 nm. For the Uristix® strip assay, strips are laid out and labeled. Twenty microliters of urine are placed onto each test strip square and incubated for at least 30 seconds before the result is recorded. For all total urine analysis plate-based assays, values below the limit of detection set by the lowest point along the standard or set by the manufacturer are considered out of range and are not estimated, but assumed the lowest point along the standard curve for that particular assay.

[2] = test system: NZM mice; assay: Splenomegaly (spleen mass), NZM mice (Example 2)
[3] = test system: MRL/lpr mice; assay: Splenomegaly (spleen mass), MRL/lpr mice
Protocol: FIG. 5 depicts splenomegaly for MRL/lpr mice across treatment groups for the study duration. MRL/lpr mice were treated as outlined in the legend. The spleen masses for all mice that survived until the end of the experiment are graphed. Each symbol represents the spleen weight for one mouse at 25 weeks of age.
Mice are tracked on an individual basis.
Vehicle alone is provided orally twice weekly (p.o.). Both proteasome inhibitors are suspended in the vehicle solution. […] In addition, urine proteinuria is determined for all animals.
Vehicle was 3% DMSO/10% Solutol/87% PBS.

[4] = test system: MRL/lpr mice; assay: Renal histopathology scoring (kidney IC-GN), MRL/lpr mice
Protocol: For histological analyses, the left kidney from each animal is removed and fixed in 10% buffered neutral 10% formalin (EMD) for 48 hours on an orbital rocker at 25° C., then washed overnight with running dH2O and stored in 70% ethanol at 4° C. until ready to be processed. Kidney stains used for histological analyses included hematoxylin and eosin (H&E), Periodic Acid Schiff (PAS) and Trichrome stains (Wistar Institute, Philadelphia, Pa.). All 3 stained sections are used by the pathologist for scoring purposes. All histological scoring is performed blinded and by an independent board certified veterinary medical pathologist (Julie Engiles, VMD, DACVP). Multiple stains are used to determine score values. Images in FIG. 17 show worst affected area of section selected blindly by the pathologist.
Kidney IC-GN Scoring Method (Smith, Dong et al. 2007):
1. Glomerular cellularity—Score 1-5: Null, low, moderate, high, severe
2. Glomerular necrosis—Score 1-5: Null, low, moderate, high, severe
3. Glomerulosclerosis—Score 1-5: Null, low, moderate, high, severe
4. Interstitial infiltration—Score 1-5: Null, low, moderate, high, severe
5. Tubular atrophy—Score 1-5: Null, low, moderate, high, severe
6. Interstitial fibrosis—Score 1-5: Null, low, moderate, high, severe
7. Vasculitis—Score 1-5: Null, low, moderate, high, severe
Specific Pathologist Definitions: • Necrosis is defined by the presence of nuclear debris/pyknosis within the glomerular tuft indicative of “necrosis.” In many samples, this is a very mild, rare finding within only a very few segments of the glomerular tuft. Also consider effacement of the glomerular tuft by PAS positive, Trichrome negative material necrosis. • Glomerular sclerosis is defined by increased fibroplasia or fibrosis within the glomerular tuft or capsule. […] Most of the vascular changes are mild and could be considered “arteriosclerosis” characterized by proliferation of the smooth muscle cells, and hyalinization of the extracellular matrix. This change may reflect hypertension secondary to glomerular pathology. In very few animals is there overt “vasculitis.” Most inflammatory changes are within the walls of the blood vessels, with little to no damage to the endothelium, and no overt hemorrhage/fibrin leakage. Many also have perivascular rims of fibroblasts.

[5] = test system: NZM mice; assay: Antinuclear antibody (ANA) ELISA (anti-chromatin, anti-Smith Ag, anti-dsDNA), serum of NZM mice (Example 2)
[6] = test system: NZM mice; assay: Body weight progression, NZM mice (Example 2)

## CC(C)C[C@H](NC(=O)[C@H](Cc1ccccc1)NC(=O)c1cnccn1)B(O)O [bortezomib, reference compound]
[1]; G4: 0.5 mg/kg iv, 1× wk
  Urine AUC proteinuria, percent change vs vehicle: −55%
[1]; G5: 0.3 mg/kg iv, 2× wk
  Urine AUC proteinuria, percent change vs vehicle: −50%
[1]; treated weekly with bortezomib
  proteinuria decrease relative to vehicle: 55%
[2]; G3 0.3 mg/kg ip, 1× wk
  Spleen mass EOS, percent change vs vehicle: +14%
[2]; G4 0.3 mg/kg ip, 2× wk
  Spleen mass EOS, percent change vs vehicle: −19%
[3]; G4: 0.5 mg/kg iv, 1× wk
  EOS spleen mass, percent change vs vehicle: −68%
[3]; G5: 0.3 mg/kg iv, 2× wk
  EOS spleen mass, percent change vs vehicle: −44%
[4]; G4: 0.5 mg/kg iv, 1× wk
  EOS glomerular cellularity, percent change vs vehicle: −31%
  EOS glomerular necrosis, percent change vs vehicle: −28%
  EOS glomerulosclerosis, percent change vs vehicle: −42%
  EOS interstitial infiltration, percent change vs vehicle: −47%
  EOS vasculitis, percent change vs vehicle: −42%
  Kidney EOS interstitial fibrosis, percent change vs vehicle: −46%
  Kidney EOS tubular atrophy, percent change vs vehicle: −50%
[4]; G5: 0.3 mg/kg iv, 2× wk
  EOS glomerular cellularity, percent change vs vehicle: −15%
  EOS glomerular necrosis, percent change vs vehicle: −25%
  EOS glomerulosclerosis, percent change vs vehicle: −18%
  EOS interstitial infiltration, percent change vs vehicle: −39%
  EOS vasculitis, percent change vs vehicle: −21%
  Kidney EOS interstitial fibrosis, percent change vs vehicle: −27%
  Kidney EOS tubular atrophy, percent change vs vehicle: −27%
[4]; bortezomib groups
  maximum reduction of renal interstitial infiltration vs vehicle: 47%
[4]; treated weekly with bortezomib
  decrease in average renal pathology score vs vehicle: 1.68 fold
[5]; G3 0.3 mg/kg ip, 1× wk
  ANA Smith Ag AUC, percent change vs vehicle: −22%
  ANA chromatin AUC, percent change vs vehicle: 113%
  ANA dsDNA AUC, percent change vs vehicle: 95%
[5]; G4 0.3 mg/kg ip, 2× wk
  ANA Smith Ag AUC, percent change vs vehicle: −53%
  ANA chromatin AUC, percent change vs vehicle: −22%
  ANA dsDNA AUC, percent change vs vehicle: −2%
[5]; bortezomib, Dex or CTX treatment groups
  reduction in anti-chromatin Ab relative to vehicle, significance: none of which was significant
[5]; once weekly bortezomib
  serum anti-dsDNA Ab increase vs vehicle: 95%
[5]; once weekly bortezomib (0.3 mg/kg ip)
  serum anti-Smith Ag Ab decrease vs vehicle: 22%
[5]; twice weekly bortezomib
  serum anti-dsDNA Ab decrease vs vehicle: 2%
[5]; twice weekly bortezomib (0.3 mg/kg ip)
  serum anti-chromatin Ab decrease vs vehicle: 22%
[6]; G3 0.3 mg/kg ip, 1× wk
  Body mass AUC, percent change vs vehicle: +13%
[6]; G4 0.3 mg/kg ip, 2× wk
  Body mass AUC, percent change vs vehicle: +11%

## C[C@@H]1C[C@H]2[C@@H]3CCC4=CC(=O)C=C[C@]4(C)[C@@]3(F)[C@@H](O)C[C@]2(C)[C@@]1(O)C(=O)CO [dexamethasone, Dexamethasone, reference compound]
[1]; G6: 1.5 mg/kg ip, 3× wk
  Urine AUC proteinuria, percent change vs vehicle: −46%
[2]; G5 1.5 mg/kg ip, 3× wk
  Spleen mass EOS, percent change vs vehicle: −59%
[3]; G6: 1.5 mg/kg ip, 3× wk
  EOS spleen mass, percent change vs vehicle: −71%
[4]; G6: 1.5 mg/kg ip, 3× wk
  EOS glomerular cellularity, percent change vs vehicle: −15%
  EOS glomerular necrosis, percent change vs vehicle: −25%
  EOS glomerulosclerosis, percent change vs vehicle: −27%
  EOS interstitial infiltration, percent change vs vehicle: −50%
  EOS vasculitis, percent change vs vehicle: −18%
  Kidney EOS interstitial fibrosis, percent change vs vehicle: −27%
  Kidney EOS tubular atrophy, percent change vs vehicle: −23%
[5]; G5 1.5 mg/kg ip, 3× wk
  ANA Smith Ag AUC, percent change vs vehicle: −56%
  ANA chromatin AUC, percent change vs vehicle: −8%
  ANA dsDNA AUC, percent change vs vehicle: −19%
[6]; G5 1.5 mg/kg ip, 3× wk
  Body mass AUC, percent change vs vehicle: −1%
